Source: patent publication US20090325959A1 (priority 2008, published 2009)
Read-outs that look alike come from different tables or passages of the source.

Tests used:
[1] = tested on: A-10 rat thoracic aorta cells; assay: PDGF-stimulated smooth muscle cell proliferation assay (BrdU incorporation); type: cell-based; conditions: A-10 cells, 10 ng/mL PDGF, BrdU incorporation, percent of total challenge-stimulated proliferation;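 also: cells kept in serum-free medium, BrdU allowed to incorporate for 24 h, then incorporated label detected fluorometrically with an anti-BrdU antibody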
ROCK2 = biological target: T1, ROCK2 (Homo sapiens, UniProt O75116); assay: Rho kinase inhibition assay (IMAP fluorescence polarization), ROCK2; type: biochemical;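 also: kinase reaction started with 10 µM ATP and run 60 min at room temperature, then phosphorylated substrate captured on IMAP beads for 30 min and fluorescence polarization read in mP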
T1 construct: purchased Upstate/Chemicon 14-451
T1 sequence (O75116 11-552 limits assumed): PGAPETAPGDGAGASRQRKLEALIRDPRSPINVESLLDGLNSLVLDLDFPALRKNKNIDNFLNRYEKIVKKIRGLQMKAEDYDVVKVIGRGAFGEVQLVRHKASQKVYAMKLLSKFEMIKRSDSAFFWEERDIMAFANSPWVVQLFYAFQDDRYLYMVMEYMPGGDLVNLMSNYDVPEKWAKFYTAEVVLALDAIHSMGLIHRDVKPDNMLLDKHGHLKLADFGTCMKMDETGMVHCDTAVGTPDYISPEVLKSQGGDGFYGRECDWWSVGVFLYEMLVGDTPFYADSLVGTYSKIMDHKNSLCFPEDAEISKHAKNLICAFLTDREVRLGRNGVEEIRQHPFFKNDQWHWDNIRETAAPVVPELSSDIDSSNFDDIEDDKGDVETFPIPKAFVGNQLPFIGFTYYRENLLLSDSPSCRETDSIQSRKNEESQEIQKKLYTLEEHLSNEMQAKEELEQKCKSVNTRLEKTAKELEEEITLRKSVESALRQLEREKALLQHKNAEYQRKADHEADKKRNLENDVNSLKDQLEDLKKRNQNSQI
Method: Following the pre-incubation, 10 μM ATP was added to initiate the reaction. After 60 minutes at room temperature, Molecular Devices IMAP™ binding solution was added to bind phosphorylated substrate. After 30 minutes of incubation in the presence of the IMAP™ beads, the fluorescence polarization was read and the ratio was reported as mP. IC50 values for compounds and EC50 values for ATP were calculated using the Prism software from Graphpad.

LPS-challenged mice = assay: LPS-induced neutrophilia and cytokine production assay; type: in vivo, mouse; conditions: intratracheal administration; FIG. 11B
Method: Male BALB/c mice, approximately 19 to 21 grams, were ordered from Charles River Laboratories (Raleigh, N.C.). All animals were challenged with aerosolized LPS (10 μg/ml) for 25 minutes on study day 0. LPS aerosol was generated using an Aerogen Aeroneb nebulizer and controller providing a flow of 400 μl/min and a particle size of 2-4 μm MMAD. Rolipram was administered i.p at 20 mg/kg. […] Four hours following LPS challenge, BALF was collected using a total of 3 ml of 0.9% sodium chloride containing 10% fetal calf serum. Total cell counts were determined using the Coulter Counter. For differential evaluations, BALF was centrifuged and cytospin slides prepared and stained with Hema3 stain. Manual leukocyte counts were then completed on 200 cells. The final concentration of individual leukocyte cell types per ml of BALF was determined by multiplication of the relative percentage of individual leukocytes with the total amount of cells/ml of BALF fluid. The concentration of IL-1β in the BALF samples was determined using commercially available Bio-plex kits (Bio-Rad). The analysis of cytokine levels was measured using the Bio-Plex 200 (Bio-Rad) system according to the manufacturer's instructions.

IRAK1 = biological target: T2, IRAK1 (Homo sapiens, UniProt P51617); assay: Kinase panel screen (KinaseProfiler), IRAK1; type: biochemical; conditions: 10 μM ATP
T2 construct: purchased Upstate, Millipore Bioscience Division (KinaseProfiler service)
T2 sequence (P51617 whole entry): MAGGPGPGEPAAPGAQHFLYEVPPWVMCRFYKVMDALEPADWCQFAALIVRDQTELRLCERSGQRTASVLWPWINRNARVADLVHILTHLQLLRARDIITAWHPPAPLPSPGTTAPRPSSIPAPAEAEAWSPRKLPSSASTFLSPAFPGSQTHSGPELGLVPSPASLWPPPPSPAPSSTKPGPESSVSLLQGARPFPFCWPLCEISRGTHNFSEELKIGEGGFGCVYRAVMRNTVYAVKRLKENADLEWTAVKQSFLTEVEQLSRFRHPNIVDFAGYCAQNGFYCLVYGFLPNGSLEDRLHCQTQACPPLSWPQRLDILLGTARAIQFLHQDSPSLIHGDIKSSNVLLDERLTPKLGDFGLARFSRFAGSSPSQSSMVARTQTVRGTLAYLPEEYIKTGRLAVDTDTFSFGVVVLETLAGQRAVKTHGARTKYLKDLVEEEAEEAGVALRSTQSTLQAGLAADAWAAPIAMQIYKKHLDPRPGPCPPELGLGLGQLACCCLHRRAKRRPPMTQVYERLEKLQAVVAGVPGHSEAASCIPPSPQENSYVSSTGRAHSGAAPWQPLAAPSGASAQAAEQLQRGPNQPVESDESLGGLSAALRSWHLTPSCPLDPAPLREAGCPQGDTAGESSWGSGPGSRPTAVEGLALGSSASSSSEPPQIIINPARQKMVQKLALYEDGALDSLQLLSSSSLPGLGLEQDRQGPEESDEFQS
Method: (§1) Compounds of Formulae I and II were examined for activity against a selected panel of kinases using the KinaseProfiler™ enzyme profiling services (Upstate, Millipore Bioscience Division). Percent kinase activity at 10 μM and 1 μM test compound and 10 μM ATP was determined against 40 wild-type recombinant human kinases according to Upstate's standard protocol: ASK1, BTK, CSK, c-RAF, GCK, GSK3β, IKKα, IKKβ, IRAK1, IRAK4, JNK1α1, JNK2α2, JNK3, ERK1, ERK2, MAPKAP-K2, MAPKAP-K3, MEK1, MKK4, MKK6, MKK7β, Mnk2, MSK1, PAK3, PDK1, PRAK, ROCK1, Rsk2, SAPK2a, SAPK2b, SAPK3, SAPK4, SRPK1, SRPK2, Syk, TAK1, TBK1, PI3-Kβ, PI3-Kγ, PI3-Kδ.

human monocytes = assay: Human monocyte cytokine secretion assay (LPS-stimulated); type: cell-based; conditions: for IC50: Monocyte, LPS-stimulated human monocytes
Method: Peripheral blood from healthy human volunteers was collected and the monocytes isolated via Ficoll-paque density centrifugation. […] The cells were allowed to pre-incubate with test compound at the indicated concentration for 30 minutes (37° C., 5% CO2, humidified air); after which the supernatant was removed and media containing compound and 1 ng/mL LPS was added. Cells were allowed to incubate with compounds and LPS for 4 hours at 37° C. after which the supernatant was removed and stored at −80° C. Cytokine concentrations in the supernatant were determined using commercially available Bio-Rad Bio-plex™ kits according the manufacturer's instructions.

p70S6K human enzyme = biological target: T3, p70S6K human enzyme (Homo sapiens, UniProt P23443, T412E); assay: p70S6K inhibition assay (IMAP FP); type: biochemical;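 also: kinase reaction run at room temperature, phosphorylated substrate captured on IMAP beads and read as fluorescence polarization in mP, IC50 then converted to Ki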
T3 construct: purchased Upstate Chemicon 14-486
T3 sequence (P23443 1-421 T412E limits assumed): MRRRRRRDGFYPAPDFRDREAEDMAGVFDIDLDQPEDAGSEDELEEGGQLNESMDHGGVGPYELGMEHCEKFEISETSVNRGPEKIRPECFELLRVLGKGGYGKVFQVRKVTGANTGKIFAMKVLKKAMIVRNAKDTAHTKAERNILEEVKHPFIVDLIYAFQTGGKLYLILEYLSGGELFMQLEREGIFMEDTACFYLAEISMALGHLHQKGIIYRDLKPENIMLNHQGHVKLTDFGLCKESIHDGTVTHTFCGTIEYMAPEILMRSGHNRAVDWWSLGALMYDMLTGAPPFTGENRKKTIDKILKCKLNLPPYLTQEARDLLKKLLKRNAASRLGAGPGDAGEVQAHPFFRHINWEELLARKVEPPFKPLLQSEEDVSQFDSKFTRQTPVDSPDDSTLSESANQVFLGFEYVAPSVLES
Method: Inhibition of Akt3 and p70S6K activity was determined using the IMAP™ FP Progressive Binding Kit (Molecular Devices product number R8127). […] Following the pre-incubation, 30 μM ATP was added to initiate the reaction. After 60 minutes at RT, Molecular Devices IMAP™ binding solution was added to bind phosphorylated substrate. After 30 minutes of incubation in the presence of the IMAP™ beads the fluorescence polarization was read and the ratio was reported as mP. IC50 results were calculated using the Prism software from Graphpad. The Ki values were determined according to the following formula: Ki=IC50/(1+([ATP Challenge]/EC50 ATP)).

Mnk2 = biological target: T4, Mnk2 (Homo sapiens, UniProt Q9HBH9); assay: Kinase panel screen (KinaseProfiler), Mnk2; type: biochemical; conditions: 10 μM ATP
T4 construct: purchased Upstate, Millipore Bioscience Division (KinaseProfiler service)
T4 sequence (Q9HBH9 whole entry): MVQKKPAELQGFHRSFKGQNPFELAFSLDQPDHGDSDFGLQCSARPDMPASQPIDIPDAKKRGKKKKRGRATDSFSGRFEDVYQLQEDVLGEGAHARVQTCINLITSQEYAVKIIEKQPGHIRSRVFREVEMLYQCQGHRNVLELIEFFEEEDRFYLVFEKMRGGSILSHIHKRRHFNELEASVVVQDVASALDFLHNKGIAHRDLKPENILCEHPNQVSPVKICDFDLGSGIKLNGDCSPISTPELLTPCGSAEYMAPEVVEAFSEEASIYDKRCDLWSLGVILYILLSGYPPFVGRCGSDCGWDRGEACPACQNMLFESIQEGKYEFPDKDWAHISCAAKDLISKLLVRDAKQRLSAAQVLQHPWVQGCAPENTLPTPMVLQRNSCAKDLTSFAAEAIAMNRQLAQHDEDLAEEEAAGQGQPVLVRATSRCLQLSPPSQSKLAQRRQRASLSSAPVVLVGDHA
Method: as §1

With `NC(=O)Cn1ccc2cc(CN3CC[C@@H](Nc4cccc5cnccc45)C3)ccc21` [Compound 2.059, (R)-2-(5-((3-(isoquinolin-5-ylamino)pyrrolidin-1-yl)methyl)-1H-indol-1-yl)acetamide] the “Percent of PDGF Induced Proliferation at 1 μM Avg” value ([1]; 1 μM test compound) was 75.0%, the “Percent of PDGF Induced Proliferation at 10 μM Avg” value ([1]; 10 μM test compound) was 25.5% and the Ki (ROCK2; 10 μM ATP, read-out: ROCK2 Ki, Avg) was 2.7 nM. The Ki (ROCK2; average Ki, read-out: ROCK2 Ki) was 2.7 nM, the “IL-1β levels in BALF from LPS-challenged mice” value (LPS-challenged mice) was “reduction” and the activity at 1 µM (IRAK1; 1 μM test compound, read-out: IRAK1 Percent inhibition, 1 μM) was 87%. The activity at 10 µM (IRAK1; 10 μM test compound, read-out: IRAK1 Percent inhibition, 10 μM) was 30%, the IC50 (human monocytes; read-out: IC50 for inhibition of IL-1β secretion) was 169 ± 13 nM and the IC50 (human monocytes; read-out: IC50 for inhibition of IL-9 secretion) was 269 ± 28.1 nM. For the same compound, the IC50 (human monocytes; read-out: IC50 for inhibition of TNF-α secretion) was 207 ± 17 nM, the “IL-6, %” value (human monocytes; average percent of stimulated IL-6 secretion from human monocytes at 10 μM of test compound) was 0.0% and the Ki (p70S6K human enzyme; 30 μM ATP, Ki=IC50/(1+([ATP Challenge]/EC50 ATP)), read-out: p70S6K Ki, Avg) was 208 nM. The Ki (p70S6K human enzyme; average Ki, read-out: p70S6K Ki) was 208 nM, the activity at 1 µM (Mnk2; 1 μM test compound, read-out: Mnk2 Percent inhibition, 1 μM) was 49% and the activity at 10 µM (Mnk2; 10 μM test compound, read-out: Mnk2 Percent inhibition, 10 μM) was 12%.
